The source of these data is patent publication US20110091587A1, “PHASE II DETOXIFICATION AND ANTIOXIDANT ACTIVITY” (JOSLIN DIABETES CENTER, INC., priority 2007, published 2011).

The experiment has as its system GCS-1::GFP. The experiment is described as follows: GCS-1::GFP reporter expression in the intestine of transgenic worms. It counts as in vivo, C. elegans. The source says:
A nucleic acid encoding the GCS-1 promoter (as described in An and Blackwell, 2003, Genes & Dev., 17, 1882-1893) was fused with a sequence encoding green fluorescent protein (GFP) to prepare a reporter construct (gcs-1::GFP) using standard molecular biology techniques. This fusion construct gene was transferred into C. elegans (An and Blackwell, 2003, Genes & Dev., 17, 1882-1893; Mello, et al., EMBO J. 1991. 10(12):3959-70), and the obtained transformed C. elegans were used in the experiment. Under normal, less oxidative stress conditions, the gcs-1::GFP construct is expressed in the pharynx area and ASI of C. elegans, where fluorescence emission of GFP can be measured.
Experiments were conducted to study the influence of the various extracts prepared in Example 1 on expression of the GCS-1::GFP reporter construct (described in Example 2) in C. elegans, following the method according to An and Blackwell, 2003, Genes & Dev., 17, 1882-1893.
Before each experiment, approximately 20 L4 stage worms carrying the GCS-1::GFP reporter construct transgene were picked to NGM plates (a type of agar media, see Brenner, Genetics, 1974 May; 77(1):71-94), containing OP50 bacteria (an E. coli strain, food for C. elegans), and were allowed to grow for 2 to 3 days. The worms were transferred together with a saline medium (M9) for treatment with the test materials to a microcentrifuge tube by flooding the NGM plate surface with the saline medium (M9). The microcentrifuge tube was then centrifuged, and a supernatant was removed. The same procedure was repeated again to wash the worms. This washing removed the bacteria which had been given as food.
Once the worms were washed, they were added for incubation in the specified test materials at the specified concentrations for the following amounts of time. Initially, incubation time was 30 minutes, and was later extended to include 60, 90, and 120 minutes. After treatment for said given times, the worms were washed in M9 at least twice, transferred back to an NGM plate containing bacteria, and allowed to recover for about 30 minutes. The worms were then mounted on slides, and scored for GFP expression levels under a microscope. GFP expression levels in the intestines of each worm were evaluated based on three scores; high, medium, and low expressions. A high score was given for worms with GFP expression through out the intestine. GFP expression midway up the intestine was scored medium. A low score was given to worms with very little or no GFP expression in their intestine. […]

Where [1] appears, read: comparison of GCS-1::GFP, Δ2 and Δ2mut3 worms.

In the case of `C[S+]([O-])CCCCN=C=S` (stereo not shown) [sulforaphane], under setting [1], the “regulation of GCS-1::GFP expression by SKN-1” value was “not partially regulated by SKN-1” and the “site of GCS-1::GFP expression” value is reported as “about half of GCS-1::GFP expression was seen in the pharynx”. Where the note is “sulforaphane 1 mg/mL, after 30, 60 or 90 minutes of incubation”, the “effect on GCS-1::GFP expression” value is on record as “no effect was seen”. For the setting “sulforaphane 1 mg/mL, longer incubation”, the “incubation time at which effect was first seen” value worked out at 6 h.
